The nature of data set [1]: In vivo PK study in cynomolgus monkeys. The note with it: male cynomolgus monkeys. On the procedure: Male cynomolgus monkeys were used as assay animals. After a single administration, the plasma concentration of the compound was measured and the pharmacokinetic behavior was evaluated.
(§1) Five healthy adult male cynomolgus monkeys were selected, wherein 2 animals were in an intravenous injection group, and 3 animals were in an oral group. The vehicle in the intravenous injection group was 5% DMSO+95% (20% HP-β-CD). The compound to be assayed was mixed with an appropriate amount of vehicle for intravenous injection, and dissolved with stirring to prepare a clear solution of 0.4 mg/mL. The clear solution was filtered by a microporous membrane, and then ready for use. The vehicle in the oral group was 5% DMSO+95% (20% HP-β-CD). The compound to be assayed was mixed with the vehicle, and dissolved with stirring to prepare a solution of 0.3 mg/mL. Cynomolgus monkeys were administered 1 mg/kg intravenously or 3 mg/kg orally, and then whole blood was collected for a certain period. Plasma was prepared. The drug concentration was analyzed by LC-MS/MS method, and the pharmacokinetic parameters were calculated by Phoenix WinNonlin software (Pharsight, USA).

Data set [2] in a line: In vivo PK study in SD rats. The conditions noted are these: male SD rats. On the procedure: Male SD rats were used as assay animals. After a single administration, the plasma concentration of the compound was measured and the pharmacokinetic behavior was evaluated.
Six healthy adult male SD rats were selected, wherein 3 rats were in an intravenous injection group and 3 rats were in an oral group. The vehicle in the intravenous injection group was 5% DMSO+95% (20% HP-β-CD). The compound to be assayed was mixed with an appropriate amount of vehicle for intravenous injection, vortexed and sonicated to prepare a clear solution of 0.2 mg/mL. The clear solution was filtered by a microporous membrane, and then ready for use. The vehicle in the oral group was 5% DMSO+95% (20% HP-β-CD). The compound to be assayed was mixed with the vehicle, vortexed and sonicated to prepare a solution of 1 mg/mL. SD rats were administered 1 mg/kg intravenously or 10 mg/kg orally, and then whole blood was collected for a certain period. Plasma was prepared. The drug concentration was analyzed by LC-MS/MS method, and the pharmacokinetic parameters were calculated by Phoenix WinNonlin software (Pharsight, USA).

Data set [3] can be described thus: In vivo PK study in beagle dogs. The conditions noted are these: male beagle dogs. On the procedure:
Male beagle dogs were used as assay animals. After a single administration, the plasma concentration of the compound was measured and the pharmacokinetic behavior was evaluated.
as §1, with “beagle dogs” for “cynomolgus monkeys”, “2” for “2 animals”, “3” for “3 animals”

The subject of another data set is monkey plasma albumin. Put plainly: Plasma protein binding (PPB), monkey plasma. The conditions noted are these: ultracentrifugation, 37° C., 4 h. The data set is classed as in vitro ADME. On the procedure:
The binding degree of the assay compound to human/mouse/rat/canine/monkey plasma albumin was studied.
• 1) Matrix preparation: on the day of the assay, plasma was thawed in cold water and centrifuged at 3220 rpm for 5 min to remove all clots. The pH of the resulting plasma was measured and adjusted to 7.4±0.1 using 1% phosphoric acid or 1N sodium hydroxide as needed. • 2) Dilution procedure for the assay compound: the assay compound was dissolved in dimethyl sulfoxide (DMSO) to prepare stock solutions with concentrations of 10 mM and 2 mM, respectively. A 40 μM working solution was prepared by diluting 2 μL of stock solution (2 mM) with 98 μL of DMSO. A 400 μM working solution of the control compound was prepared by diluting 10 μL of stock solution with 240 μL of DMSO. The working solution of the compound (5 μL) was mixed well with a blank matrix (995 μL) at a ratio of 1:200 to prepare a loading matrix.
• a) An equal volume of 30 μL of loading matrix (n=2) was transferred to a sample collection plate to prepare a time 0 (TO) sample for residue determination. The sample was immediately matched with the corresponding blank buffer to a final volume of 60 μL, and the volume ratio of plasma to buffer in each well was 1:1. […] The mixture was centrifuged at 4000 rpm for 20 min and 100 μL of supernatant from each sample was analyzed by LC-MS/MS.

With `Cc1cccc(CN2C(=O)c3nc(-c4nc(Nc5ccnn5C)ncc4C)sc3C2(C)C)n1` [WX001], the clearance in data set [1] (cynomolgus monkey, plasma, iv, 1 mg/kg intravenously) came out at 7.9 mL/min/kg; in data set [2] (rat, plasma, iv, 1 mg/kg intravenously), 24.8 mL/min/kg; in data set [3] (dog, plasma, iv, 1 mg/kg intravenously), 19 mL/min/kg. In addition, the Vd in data set [1] (cynomolgus monkey, plasma, iv, 1 mg/kg intravenously, read-out: Vdss) came out at 1.19 L/kg; in data set [2] (rat, plasma, iv, 1 mg/kg intravenously, read-out: Vdss) it was 1.06 L/kg; in data set [3] (dog, plasma, iv, 1 mg/kg intravenously, read-out: Vdss), 1.94 L/kg. Further, the bioavailability was found to be 41% in data set [1] (cynomolgus monkey, plasma, oral, 1 mg/kg intravenously / 3 mg/kg orally, read-out: F % (oral bioavailability)); 21% in data set [2] (rat, plasma, oral, 1 mg/kg intravenously / 10 mg/kg orally, read-out: F % (oral bioavailability)); 52% in data set [3] (dog, plasma, oral, 1 mg/kg intravenously / 3 mg/kg orally, read-out: F % (oral bioavailability)). Moreover, the half-life is 2 h in data set [1] (cynomolgus monkey, plasma, single administration); 2.6 h in data set [2] (rat, plasma, single administration); 1.09 h in data set [3] (dog, plasma, single administration). The Cmax in data set [1] (cynomolgus monkey, po, 3 mg/kg orally, plasma) was found to be 1250 nM; in data set [2] (rat, po, 10 mg/kg orally, plasma), 1010 nM; in data set [3] (dog, po, 3 mg/kg orally, plasma), 1230 nM. The “Oral DNAUC (AUCPO/Dose)” value is recorded as 1995.93 nM · h/mpk in data set [1] (3 mg/kg orally), 302.12 nM · h/mpk in data set [2] (10 mg/kg orally) and 1099.27 nM · h/mpk in data set [3] (3 mg/kg orally). Besides, the “Plasma protein binding rate (unbound %)” value with monkey plasma albumin is recorded as 2.6%.

Values taken from US20240300975A1, “DIMETHYL-SUBSTITUTED THIAZOLOLACTAM COMPOUND AND USE THEREOF” (D3 Bio (Wuxi) Co., Ltd., priority 2021, published 2024).
